# Data taken from US11938218B2, “High density peptide polymers” (The Regents of the University of California, priority 2014, dated 2024).
# Ends that are not written are not given here. * marks the point of attachment. NorAha = N-(hexanoic acid)-cis-5-norbornene-exo-dicarboximide, O=C1[C@@H]2[C@H](C(=O)N1CCCCCC(=O)*)[C@H]1C=C[C@@H]2C1; fluorescein = 5(6)-carboxyfluorescein
# Key:
# chymotrypsin = chymotrypsin (Bos taurus, UniProt P00766); assay: Time course of chymotrypsin treatment assayed by RP-HPLC; details: after 20 minutes of incubation with chymotrypsin (1 μM)
# [1] = test system: trypsin, chymotrypsin and Pronase; assay: RP-HPLC analysis of CPP proteolysis (intact material after protease treatment); assay type: in vitro ADME; details: 1 μM protease, 20 min
# Procedure: The extent of proteolytic degradation of the Tat peptide, polymer and particle by trypsin (Gibco Life Tech., cat. #15090-046), a-chymotrypsin (Fisher Scientific, cat. #ICN1522722) and Pronase (Roche, cat. #10165921001) was assessed by comparison of chromatograms in RP-HPLC. I n these experiments, the material at the indicated concentration was incubated with each protease (at 1 μM) for 20 min, and then the enzymes were heat denatured at 65° C. for 15 min, and the solution was immediately injected onto an analytical RP-HPLC. […] Note that the standard curves for the polymer and particle will be biased due to the fact that after cleavage, the polymer backbone and fluorophore should remain intact, and will comprise part of the measured peak area.
# Tat-containing materials, at the same concentration used in flow cytometery and confocal microscopy studies described above (2.5 M), were challenged for 20 min with various proteases at high enzyme concentration (˜1 M) prior to determining the extent of proteolytic cleavage and residual bioactivity. Such activity was assayed by three separate methods: reverse-phase high-performance liquid chromatography (RP-HPLC), flow cytometry, and confocal microscopy. […] The bioactivity of enzymatically digested materials was then assessed in cellular assays by both flow cytometry and confocal microscopy.
# HeLa cells [2] = assay: Cellular uptake in HeLa cells by flow cytometry (Tat, Arg8, guanidinium materials and controls); assay type: cell-based; details: 30 min incubation, DMEM with 10% FBS
# HeLa cells [3] = assay: CellTiter-Blue cell viability assay, 72 hrs; details: for LD50: data fit to the Hill equation
# Procedure: The cytotoxicity of materials was assessed using the CellTiter-Blue® assay (Promega, cat #G8081), which measures the metabolic reduction of resazurin to resorufin via fluorescence. For these studies, HeLa cells were plated at a density of 3,500 cells per well of a 96-well plate 18 hrs prior to treatment. Materials dissolved in DPBS at 10× the desired concentrations were added to the wells along with a 10% DMSO positive control. Cells were incubated for 72 hrs at 37° C. Note that concentration for all toxicity measurements is with respect to peptide concentration to ensure that all peptides and polymers are fairly compared with respect to their therapeutic components. […] The medium was removed and 80 μL of fresh medium lacking phenol red was added. To this was added 20 μL of the CellTiter-Blue® reagent and the cells were then incubated for 2 hrs prior to measuring fluorescence using 560 nm excitation and 590 nm emission. The fluorescence measurements were corrected for background fluorescence from the CellTiter-Blue® reagent by subtracting the fluorescence reading of wells treated with the reagent in the absence of cells. Fluorescence values were then referenced as a percentage of the value obtained for the DPBS vehicle control.
# HeLa cells [4] = assay: Cellular uptake in HeLa cells by flow cytometry (GSGSG-derived and KLA polymers); assay type: cell-based; details: 2.5 μM with respect to fluorophore, 30 min
# Procedure: HeLa cells were plated at a density of 90,000 cells per well of a 24-well plate 18 hrs prior to treatment with the material of interest. Materials dissolved in Dulbecco's Phosphate Buffered Saline (DPBS without Ca2+ or Mg2+; Corning Cellgro, cat. #21-031-CM) at 10× the desired concentration (where concentration is with respect to fluorophore concentration to ensure propare comparison of each molecular transporter) were added to the wells and the plates were incubated for 30 min at 37° C. The medium was then removed and the cells were washed 2× with DPBS and then incubated 3× for five minutes each with heparin (0.5 mg/mL in DPBS; Affymetrix, cat. #16920) to remove any membrane-bound, non-internalized material, and finally rinsed again with DPBS. The cells were then trypsinized (0.25% trypsin in DPBS; Gibco Life Tech., cat. #15090-046) for 10 min, cold medium was added, and the cells were transferred to Eppendorfs. The suspended cells were centrifuged to pellets and then resuspended in a minimal amount of cold DPBS. Flow cytometry data (10,000 events on three separate cultures) was then acquired.
# HeLa cells [5] = assay: Pharmacological and thermal probes of cellular uptake mechanisms by flow cytometry; assay type: cell-based; details: dynasore 80 μM, MβCD 9.5 mM, 4° C.
# Procedure: HeLa cells were plated at a density of 90,000 cells per well of a 24-well plate 18 h prior to treatment. Materials dissolved in Dulbecco's Phosphate Buffered Saline (DPBS without Ca^2+ or Mg^2+; Corning Cellgro, cat. #21-031-CM) at 10× the desired concentration were added to the wells, and the plates were incubated for 30 min at 37° C. The medium was then removed, and the cells were washed twice with DPBS and then incubated three times for 5 min with heparin (0.5 mg/mL in DPBS; Affymetrix, cat. #16920), and finally rinsed again with DPBS. The cells were then trypsinized (0.25% trypsin; Gibco Life Tech., cat. #15090-046) for 10 min, cold medium was added, and the cells were transferred to Eppendorfs, centrifuged to pellets and then resuspended in a minimal amount of cold DPBS. Fluorescence activated cell sorting data (10000 events on three separate cultures) was acquired on an Accuri C6 flow cytometer set to default “3 blue 1 red” configuration with standard optics and slow fluidics (14 μL/min). […] The cells were then incubated, prepared and analyzed by flow cytometry as described above. […] Data is reported as the normalized mean fluorescence, which are the mean fluorescence yielded by the material/the mean fluorescence from the vehicle control. […]
# HeLa cells [6] = assay: Live-cell confocal microscopy (GSGSG-derived and KLA polymers); assay type: cell-based; details: 2.5 μM with respect to fluorophore
# [7] = test system: CC(C)C[C@H](NC(=O)[C@H](Cc1c[nH]cn1)NC(=O)[C@H](C)NC(=O)[C@@H]1CCCN1C(=O)[C@H](CCCNC(=N)N)NC(=O)[C@H](CCC(=O)NCCNc1cccc2c(S(=O)(=O)O)cccc12)NC(=O)CN1C(=O)[C@@H]2[C@H](C1=O)[C@H]1C=C[C@@H]2C1)C(=O)N[C@@H](CCCNC(=N)N)C(=O)N[C@@H](CC(=O)O)C(=O)N[C@@H](CO)C(=O)NCC(=O)N[C@@H](CCCCNC(=O)c1ccc(N=Nc2ccc(N(C)C)cc2)cc1)C(=O)NCC(=O)N[C@@H](CO)C(=O)NCC(=O)N[C@@H](CO)C(=O)NCC(N)=O; assay: purified protein, by the assay type; details: other: Michaelis-Menten plot, cleavage by MT1-MMP; pH 7.4
# [8] = 72 hrs, concentration with respect to peptide
compound,measurement,setting,value
N=C(N)NCCC[C@H](NC(=O)[C@H](CCCNC(=N)N)NC(=O)[C@H](CCCNC(=N)N)NC(=O)[C@H](CCC(N)=O)NC(=O)[C@H](CCCNC(=N)N)NC(=O)[C@H](CCCNC(=N)N)NC(=O)[C@H](CCCCN)NC(=O)[C@H](CCCCN)NC(=O)[C@H](CCCNC(=N)N)NC(=O)CNC(=O)[C@H](Cc1ccc(O)cc1)NC(=O)[C@@H](N)CCCCNC(=O)c1ccc2c(c1)C(=O)OC21c2ccc(O)cc2Oc2cc(O)ccc21)C(N)=O [Tat peptide],"material remaining, of the starting concentration",chymotrypsin,less than 10%
same,proteolysis by RP-HPLC after protease treatment (in words),[1],complete consumption
"Arg8 polymer: fluorescein end-labeled ROMP homopolymer of NorAha-Arg8 monomer, DP 8, deprotected (NorAha-RRRRRRRR-NH2; also: ROMP homopolymer, DP 8, fluorescein end label on polymer)",cellular uptake by flow cytometry (in words),HeLa cells [2],responses similar to those of the guanidinium polymer
"GSGSG56-b-OEG28 [GSGSG, m ~60]",cytotoxicity (in words),HeLa cells [3]; at concentrations up to 1 mM,No cytotoxicity
"GSGSGKK61-b-OEG30 [GSGSGKK, m ~60]",cytotoxicity (in words),HeLa cells [3]; at concentrations up to 1 mM,No cytotoxicity
"GSGSGR71-b-OEG26 (also: ROMP block copolymer, Arg block DP 71, OEG block DP 26) [GSGSGR, m ~60]",cellular uptake by flow cytometry (in words),HeLa cells [4],better intracellular penetration
"GSGSGRR57-b-OEG13 (not fully specified; also: ROMP polymer backbone, 57 repeats of peptide, OEG block, 13 units) [GSGSGRR, m ~60]",cellular uptake by flow cytometry (in words),HeLa cells [4],better intracellular penetration
same,cytotoxicity (in words),HeLa cells [3]; at concentrations up to 1 mM,No cytotoxicity
"K(5/6-Flu)RRRRRRRR-NH2 (K(fluorescein)RRRRRRRR-NH2) [Arg8 peptide, fluorescein-labeled canonical cell penetrating peptide Arg8]",effect of pharmacological and thermal inhibition on flow cytometry readings,HeLa cells [5],only a small effect
"KLA6 [KLA full length, m ~5]",LD50,HeLa cells [3]; [8],12.5 µM
"KLA11 [KLA full length, m ~10]",LD50,HeLa cells [3]; [8],25 µM
"KLA14 [KLA full length, m ~15]",LD50,HeLa cells [3]; [8],30 µM
"KLA(fragment)11 (KLAKLAK; also: ROMP polymer, 11 repeats) [KLA fragment, m ~10]",cellular uptake by flow cytometry (in words),HeLa cells [4],ability to enter cells
same,internalization and localization by live-cell confocal microscopy (in words),HeLa cells [6],a mixture of diffuse and punctate fluorescence
same,cytotoxicity (in words),HeLa cells [3]; [8],negligible toxicity
"KLAKLAKKLAKLAK (KLAKLAKKLAKLAK-NH2; also: fluorescein-lysine, position not given here) [KLA peptide, reference compound]",cellular uptake by flow cytometry (in words),HeLa cells [4],indistinguishable from that of the vehicle control
same,cytotoxicity (in words),HeLa cells [3]; [8],no cytotoxicity was detected
MT1-MMP (Homo sapiens),Km,[7],11 µM
same,kcat/Km,[7],8670 M⁻¹ s⁻¹
"R52-b-OEG20 [R control, m ~60]",internalization and localization by live-cell confocal microscopy (in words),HeLa cells [6],a mixture of diffuse and punctate fluorescence
